We go through 21 compounds from PubChem BioAssay AID328 (DTP/NCI, 2004).

Toxic doses and inconclusive results are not listed.

For the experiment, the system named is BDF1 mice, P388 leukemia ip, median survival T/C. The experiment is described as follows: NCI In Vivo Anticancer Drug Screen. Data for tumor model P388 Leukemia (intraperitoneal) in B6D2F1 (BDF1) mice. The conditions noted are these: endpoint: median survival time, higher = longer survival. The method, then:
The antitumor activity of compounds was measured in mice bearing transplantable tumors. Survival or tumor size were measured and the results are expressed as the measurement made in the treated group (T) divided by the measurement made in the vehicle treated control group (C). The tumor model used in this assay is P388 Leukemia (intraperitoneal) in B6D2F1 (BDF1) mice

[1] abbreviates: dose: 100.0 mg/kg/injection, schedule: Q01DX009 (ip), vehicle: saline with Tween-80.
The mark [2] stands for this setting: dose: 200.0 mg/kg/injection, schedule: Q01DX009 (ip), vehicle: saline with Tween-80.
Where [3] appears, read: dose: 400.0 mg/kg/injection, schedule: Q01DX009 (ip), vehicle: saline with Tween-80.
[4] abbreviates: dose: 25.0 mg/kg/injection, schedule: Q01DX009 (ip), vehicle: saline with Tween-80.
Where [5] appears, read: dose: 50.0 mg/kg/injection, schedule: Q01DX009 (ip), vehicle: saline with Tween-80.
Where [6] appears, read: dose: 100.0 mg/kg/injection, schedule: Q04DX003 (ip), vehicle: saline with Tween-80.
Setting [7] is: dose: 100.0 mg/kg/injection, schedule: Q04DX003 (ip), vehicle: saline.
Setting [8] is: dose: 200.0 mg/kg/injection, schedule: Q04DX003 (ip), vehicle: saline.
Where [9] appears, read: dose: 400.0 mg/kg/injection, schedule: Q04DX003 (ip), vehicle: saline.
Where [10] appears, read: dose: 200.0 mg/kg/injection, schedule: Q04DX003 (ip), vehicle: saline with Tween-80.
Where [11] appears, read: dose: 400.0 mg/kg/injection, schedule: Q04DX003 (ip), vehicle: saline with Tween-80.
[12] abbreviates: dose: 50.0 mg/kg/injection, schedule: Q04DX003 (ip), vehicle: saline.
Where [13] appears, read: dose: 100.0 mg/kg/injection, schedule: Q04DX003 (ip), vehicle: Klucel (hydroxypropylcellulose) (HPC).
[14] abbreviates: dose: 200.0 mg/kg/injection, schedule: Q04DX003 (ip), vehicle: Klucel (hydroxypropylcellulose) (HPC).
[15] abbreviates: dose: 400.0 mg/kg/injection, schedule: Q04DX003 (ip), vehicle: Klucel (hydroxypropylcellulose) (HPC).

Regarding `CC(C)Oc1ccc2c(c1)Sc1ccc(Cl)cc1N2`, the T/C under setting [1] is 104 % of control, the T/C under setting [2] was 104 % of control and the T/C under setting [3] is 104 % of control.
Regarding `CSc1nc(SC)c2[nH]cnc2n1`, the T/C by setting is: (dose: 3.13 mg/kg/injection, schedule: Q01DX009 (ip), vehicle: saline with Tween-80) 87 % of control; (dose: 6.25 mg/kg/injection, schedule: Q01DX009 (ip), vehicle: saline with Tween-80) 99 % of control; (dose: 12.5 mg/kg/injection, schedule: Q01DX009 (ip), vehicle: saline with Tween-80) 91 % of control; under setting [4], 94 % of control.
`CN(C)Cc1cccc(N)c1`: the T/C was 120 % of control (dose: 0.25 mg/kg/injection, schedule: Q01DX009 (ip), vehicle: water); 111 % of control (dose: 0.5 mg/kg/injection, schedule: Q01DX009 (ip), vehicle: water); 113 % of control (dose: 1.0 mg/kg/injection, schedule: Q01DX009 (ip), vehicle: water); 120 % of control (dose: 2.0 mg/kg/injection, schedule: Q01DX009 (ip), vehicle: water); 92 % of control (dose: 4.0 mg/kg/injection, schedule: Q01DX009 (ip), vehicle: water); 100 % of control (dose: 12.5 mg/kg/injection, schedule: Q04DX003 (ip), vehicle: water). For the same compound, the T/C is 100 % of control (dose: 25.0 mg/kg/injection, schedule: Q04DX003 (ip), vehicle: water); 91 % of control (dose: 50.0 mg/kg/injection, schedule: Q04DX003 (ip), vehicle: water); 97 % of control (dose: 100.0 mg/kg/injection, schedule: Q04DX003 (ip), vehicle: water).
With `ClCCOC(OCCCl)OCCCl`, the T/C is 113 % of control under setting [4], 109 % of control under setting [5] and 95 % of control under setting [6].
For `C1=CC2CCC(C1)C21OCCO1` (centres undefined), the T/C was 90 % of control (dose: 100.0 mg/kg/injection, schedule: Q01DX009 (ip), vehicle: saline); 95 % of control under setting [7]; 109 % of control (dose: 200.0 mg/kg/injection, schedule: Q01DX009 (ip), vehicle: saline); 104 % of control under setting [8]; 109 % of control (dose: 400.0 mg/kg/injection, schedule: Q01DX009 (ip), vehicle: saline); 108 % of control under setting [9].
For the compound `C1CC[N-]CC1.C1CC[N-]CC1.C1CC[N-]CC1.C1CC[N-]CC1.[Cl][Co][Cl]`, the T/C is, setting by setting: under setting [4], 118 % of control; (dose: 33.0 mg/kg/injection, schedule: Q01DX009 (ip), vehicle: saline with Tween-80) 100 % of control; (dose: 75.0 mg/kg/injection, schedule: Q01DX009 (ip), vehicle: saline with Tween-80) 120 % of control.
For the compound `COC(=O)C1CCN1C(C)(C)C` (centres undefined), the T/C is 100 % of control under setting [7], 90 % of control under setting [8] and 90 % of control under setting [9].
For the compound `Cc1c2oc3c(C)ccc(C(=O)NCc4cccnc4)c3nc-2c(C(=O)NCc2cccnc2)c(N)c1=O`, the T/C under setting [6] is 96 % of control, the T/C under setting [10] was 96 % of control and the T/C under setting [11] is 100 % of control.
For `CC(C)(C)S[Si](Cl)(SC(C)(C)C)SC(C)(C)C`, the T/C reads like this: (dose: 100.0 mg/kg/injection, schedule: Q04DX002 (ip), vehicle: saline with Tween-80) 119 % of control; (dose: 200.0 mg/kg/injection, schedule: Q04DX002 (ip), vehicle: saline with Tween-80) 103 % of control; (dose: 400.0 mg/kg/injection, schedule: Q04DX002 (ip), vehicle: saline with Tween-80) 94 % of control.
For the compound `CCCCCCCCCCC(O)CN1CCN(c2ccc(C)cc2)CC1` (centres undefined), the T/C is 100 % of control under setting [1]; 100 % of control (dose: 100.0 mg/kg/injection, schedule: Q04DX003 (ip), vehicle: saline sonified); 90 % of control (dose: 176.0 mg/kg/injection, schedule: Q04DX003 (ip), vehicle: saline with Tween-80); 100 % of control under setting [2]; 115 % of control (dose: 200.0 mg/kg/injection, schedule: Q04DX003 (ip), vehicle: saline sonified); 90 % of control (dose: 264.0 mg/kg/injection, schedule: Q04DX003 (ip), vehicle: saline with Tween-80). For the same compound, under setting [3], the T/C is 90 % of control.
For the compound `C/C=C(/Cl)c1c(C)cc(C)cc1C`, the T/C under setting [1] is 108 % of control; the T/C under setting [6] was 100 % of control; the T/C under setting [2] was 108 % of control; the T/C under setting [10] was 111 % of control; the T/C under setting [11] was 103 % of control.
`N#Cc1ccc(Oc2ccc(C#N)cc2)cc1`: the T/C by setting is: under setting [6], 92 % of control; under setting [10], 88 % of control; under setting [11], 88 % of control.
`NC(CSC(c1ccccc1)(c1ccccc1)c1ccc(Cl)cc1)C(=O)O` (centres undefined): the T/C is, setting by setting: (dose: 33.0 mg/kg/injection, schedule: Q04DX003 (ip), vehicle: saline with Tween-80) 190 % of control; under setting [5], 272 % of control; (dose: 50.0 mg/kg/injection, schedule: Q04DX003 (ip), vehicle: saline with Tween-80) 190 % of control; (dose: 75.0 mg/kg/injection, schedule: Q04DX003 (ip), vehicle: saline with Tween-80) 272 % of control.
Consider `O=C(O)C1OC(n2cc(F)c(=O)[nH]c2=O)CC1O` (centres undefined), for which the T/C is 108 % of control under setting [12]; 116 % of control under setting [7]; 106 % of control under setting [8]; 108 % of control (dose: 300.0 mg/kg/injection, schedule: Q04DX003 (ip), vehicle: saline).
With `c1ccc(CCN2COc3c(ccc4cccnc34)C2)cc1`, the T/C under setting [6] was 95 % of control.
With `[CH3][Hg][O]C(C)=O`, the T/C by setting is: (dose: 3.12 mg/kg/injection, schedule: Q01DX009 (ip), vehicle: Klucel (hydroxypropylcellulose) (HPC)) 107 % of control; (dose: 6.25 mg/kg/injection, schedule: Q01DX009 (ip), vehicle: Klucel (hydroxypropylcellulose) (HPC)) 113 % of control.
For the compound `CC1(C)O[C@@H]2C[C@H]3[C@@H]4CCC5=CC(=O)C=C[C@]5(C)[C@@]4(F)[C@@H](O)C[C@]3(C)[C@]2(C(=O)CO)O1`, the T/C is, setting by setting: under setting [5], 100 % of control; under setting [6], 108 % of control; under setting [10], 100 % of control.
Take `OC1CC2C3C4C1C1C2C3C41` (centres undefined): the T/C (dose: 100.0 mg/kg/injection, schedule: Q01DX001 (ip), vehicle: saline) is 95 % of control; the T/C under setting [13] is 115 % of control; the T/C (dose: 200.0 mg/kg/injection, schedule: Q01DX001 (ip), vehicle: saline) is 86 % of control; the T/C under setting [14] is 115 % of control; the T/C under setting [15] is 90 % of control.
On to `Cc1ccc(S(=O)(=O)Nc2ccccc2)c(CC(O)(c2ccccc2)c2ccccc2)c1`, for which the T/C was 90 % of control under setting [5] and 95 % of control under setting [1].
With `COc1cc2c(cc1OC)-c1ncnc(-c3ccccc3)c1C2`, the T/C is, setting by setting: (dose: 100.0 mg/kg/injection, schedule: Q01DX009 (ip), vehicle: Klucel (hydroxypropylcellulose) (HPC)) 100 % of control; under setting [13], 108 % of control; (dose: 200.0 mg/kg/injection, schedule: Q01DX009 (ip), vehicle: Klucel (hydroxypropylcellulose) (HPC)) 100 % of control; under setting [14], 91 % of control; (dose: 400.0 mg/kg/injection, schedule: Q01DX009 (ip), vehicle: Klucel (hydroxypropylcellulose) (HPC)) 95 % of control; under setting [15], 95 % of control.
As to `Cn1c(O)c(C=N)c(=O)n(C)c1=O`, the T/C was 118 % of control (dose: 12.0 mg/kg/injection, schedule: Q01DX009 (ip), vehicle: saline); 109 % of control (dose: 25.0 mg/kg/injection, schedule: Q01DX009 (ip), vehicle: saline); 92 % of control (dose: 25.0 mg/kg/injection, schedule: Q04DX003 (ip), vehicle: saline); 100 % of control (dose: 50.0 mg/kg/injection, schedule: Q01DX009 (ip), vehicle: saline); 100 % of control under setting [12].
